Data from patent publication US20160287617A1 (priority 2013, published 2016).
Marks after values point to notes of the source that are not given here.

Columns and labels:
Set-up in all cases: species or system broiler chickens
Details in all cases: in vivo
[1] = tested on: T-2 toxin in chickens
[2] = tested on: T-2 toxin in chickens; remark: listed apart in the source
[3] = tested on: Newcastle
[4] = tested on: T-2 toxin in chickens; remark: listed apart in the source
[5] = tested on: T-2 toxin in chickens; remark: listed apart in the source
[6] = tested on: T-2 toxin in chickens; remark: listed apart in the source

With T-2 toxin the “Relative weight of bursa of Fabricius (%), medians ± standard error” value [1] was 0.248 ± 0.016 ^a %, the “Relative weight of kidney (%), medians ± standard error” value [1] was 0.809 ± 0.032 ^a % and the “Relative weight of liver (%), medians ± standard error” value [1] was 2.57 ± 0.104 ^a %. The “Relative weight of spleen (%), medians ± standard error” value [1] was 0.094 ± 0.009 ^a %, the “Relative weight of thymus (%), medians ± standard error” value [1] was 0.282 ± 0.020 ^a % and the “Ash, medians ± standard error” value [2] was 56.37 ± 0.32 ^a %. The “Calcium, medians ± standard error” value [2] was 20.43 ± 0.19 ^a %, the “Manganesium, medians ± standard error” value [2] was 6.7 ± 0.21 ^a mg/kg and the “Phosphorous, medians ± standard error” value [2] was 9.72 ± 0.07 ^a %. The “Zinc, medians ± standard error” value [2] was 247 ± 4.37 ^a mg/kg, the “Inhibition of Newcastle hemagglutination (18 days after vaccination), medians ± standard error” value [3] was 8.717 ± 0.29 ^b Log2 and the “Feed consumption, medians ± standard error” value [4] was 2035 ± 44.3 ^a. For the same substance, the “Feed conversion, medians ± standard error” value [4] was 1.45 ± 0.035 ^b, the “Weight gain, medians ± standard error” value [4] was 1399 ± 29.46 ^b and the “Weight in g, Final (28 days), medians ± standard error” value [4] was 1442 ± 29.49 ^b g. For the same substance, the “Weight in g, Initial, medians ± standard error” value [4] was 43 ± 0.43 ^a g, the “Xantophylls (oral solution), medians ± standard error” value ([4]; po) was 8.92 ± 0.70 ^b mg/L and the “Gizzard: loss of continuity, ulcer activity (moderate multifocal ulcerative ventriculitis)” value [5] was 7/12. For the same substance, the “Gizzard: scant erosions in the recovery zone (discrete, multifocal erosions)” value [5] was 5/12, the “Kidney: lymphocyte clusters in the interstitial space” value [5] was 4/12 and the “Larynx: no significant changes” value [5] was 4/12. The “Liver: areas of extramedullary hematopoiesis” value [5] was 1/12, the “Liver: multifocal lymphocyte clusters around portal cavities and in the parenchymal (lymphocytic colangiohepatitis)” value [5] was 8/12 and the “Liver: scant fat vacuoles/cells in hepatocyte cytoplasm (esteatosis)” value [5] was 3/12. The “Proventriculus: hyperplasia / cluster of associated lymphoid tissue” value [5] was 1/12, the “Proventriculus: no significant changes” value [5] was 11/12 and the “Spleen, thymus: no significant changes” value [5] was 12/12. For the same substance, the “Tongue: dense plates above epithelium lining with lymphocyte and macrophage clusters (estomatitis and erosive/necrotic glositis)” value [5] was 8/12, the “Tongue: no significant changes (animals/examined)” value [5] was 4/12 and the “Granulocytes (segmented neutrophils and band neutrophils), medians ± standard error” value [6] was 0.9 ± 0.17 ^a 10^3/μL. The “Hematocrit, medians ± standard error” value [6] was 31.8 ± 1.56 ^a %, the “Hemoglobin, medians ± standard error” value [6] was 12.1 ± 0.46 ^a g/dL and the “Lymphocytes, medians ± standard error” value [6] was 58.4 ± 3.32 ^b 10^3/μL. For the same substance, the “Median cell count (monocytes, basophils and eosinophils), medians ± standard error” value [6] was 5.8 ± 0.76 ^a 10^3/μL, the “Platelets, medians ± standard error” value [6] was 31 ± 4.95 ^a 10^3/μL and the “Red blood cells (erythrocytes), medians ± standard error” value [6] was 2.46 ± 0.12 ^a 10^6/μL. For the same substance, the “White blood cells (Leukocytes), medians ± standard error” value [6] was 65.10 ± 4.07 ^b 10^3/μL.
